Measurements published in ChEMBL document CHEMBL4177669 (Bioorg Med Chem Lett, 2017).
In brackets after ≈: the same amount, converted by molar mass. Values belong to the molecule of their own block, whether it stands above or below them.

Legend:
[1] = Drug metabolism in human hepatocytes assessed as acyl glucoronidation at 10 […] after 30 to 120 mins by LC-MS analysis; format: ADME, cell-based, Hepatocyte
[2] = Half life in CD-1 mouse at 3 mg/kg, iv; format: ADME, organism-based; conditions: in vivo
[3] = AUC in CD-1 mouse at 3 mg/kg, iv; format: ADME, organism-based; conditions: in vivo
[4] = Clearance in CD-1 mouse at 3 mg/kg, iv; format: ADME, organism-based; conditions: in vivo
[5] = Drug metabolism in rat hepatocytes assessed as acyl glucoronidation at 10 […] after 30 to 120 mins by LC-MS analysis; format: ADME, cell-based, Hepatocyte
[6] = AUC in cynomolgus monkey at 3 mg/kg, iv; format: ADME, organism-based, Macaca fascicularis; conditions: in vivo
[7] = Oral bioavailability in Wistar rat at 10 mg/kg; format: ADME, organism-based; conditions: in vivo
[8] = Half life in cynomolgus monkey at 3 mg/kg, iv; format: ADME, organism-based, Macaca fascicularis; conditions: in vivo
[9] = Clearance in cynomolgus monkey at 3 mg/kg, iv; format: ADME, organism-based, Macaca fascicularis; conditions: in vivo
[10] = AUC in Wistar rat at 10 mg/kg, po; format: ADME, organism-based; conditions: in vivo
[11] = Volume of distribution at steady state in CD-1 mouse at 1 mg/kg, iv; format: ADME, organism-based; conditions: in vivo, read-out: Vdss
[12] = AUC in cynomolgus monkey at 10 mg/kg, po; format: ADME, organism-based, Macaca fascicularis; conditions: in vivo
[13] = Cmax in Wistar rat at 10 mg/kg, po; format: ADME, organism-based; set-up: dose 10 mg/kg, route oral; conditions: in vivo
[14] = Half life in Wistar rat at 10 mg/kg, po; format: ADME, organism-based; conditions: in vivo
[15] = AUC in Wistar rat at 3 mg/kg, iv; format: ADME, organism-based; conditions: in vivo
[16] = AUC in CD-1 mouse at 1 mg/kg, iv; format: ADME, organism-based; conditions: in vivo
[17] = Clearance in Wistar rat at 3 mg/kg, iv; format: ADME, organism-based; conditions: in vivo
[18] = Thermodynamic solubility of the compound; format: physicochemical; conditions: read-out: Therm_solubility
[19] = Half life in CD-1 mouse at 1 mg/kg, iv; format: ADME, organism-based; conditions: in vivo
[20] = Volume of distribution at steady state in cynomolgus monkey at 3 mg/kg, iv; format: ADME, organism-based, Macaca fascicularis; conditions: in vivo, read-out: Vdss
[21] = AUC in CD-1 mouse at 10 mg/kg, po; format: ADME, organism-based; conditions: in vivo
[22] = Clearance in CD-1 mouse at 1 mg/kg, iv; format: ADME, organism-based; conditions: in vivo
[23] = Cmax in cynomolgus monkey at 10 mg/kg, po; format: ADME, organism-based, Macaca fascicularis; set-up: dose 10 mg/kg, route oral; conditions: in vivo
[24] = Oral bioavailability in cynomolgus monkey at 10 mg/kg; format: ADME, organism-based, Macaca fascicularis; conditions: in vivo
[25] = Half life in cynomolgus monkey at 10 mg/kg, po; format: ADME, organism-based, Macaca fascicularis; conditions: in vivo
[26] = Cmax in CD-1 mouse at 10 mg/kg, po; format: ADME, organism-based; set-up: dose 10 mg/kg, route oral; conditions: in vivo
[27] = Half life in Wistar rat at 3 mg/kg, iv; format: ADME, organism-based; conditions: in vivo
[28] = Volume of distribution at steady state in Wistar rat at 3 mg/kg, iv; format: ADME, organism-based; conditions: in vivo, read-out: Vdss
[29] = Half life in CD-1 mouse at 10 mg/kg, po; format: ADME, organism-based; conditions: in vivo
[30] = Oral bioavailability in CD-1 mouse at 10 mg/kg; format: ADME, organism-based; conditions: in vivo
[31] = Drug metabolism in rat hepatocytes assessed as oxidation
[32] = Drug metabolism in rat liver microsomes assessed as N-dealkylation; format: ADME, microsome
[33] = Drug metabolism in rat hepatocytes assessed as hydrolysis

SMILES: CC(CCCCOc1ccccc1CN(C)C(=O)c1ccc(-c2ccco2)cc1)C(=O)O (stereo not drawn)
Drug metabolism [1]: Metabolite_Detected
half-life [2]: 2.8 h
AUC [3]: 11400 ng·h/mL
clearance [4]: 3 mL/min/kg
Drug metabolism [5]: Metabolite_Detected

SMILES: C[C@H](CCCOc1ccccc1CN(C)C(=O)c1ccc(-c2ccco2)cc1)CC(=O)O
Drug metabolism [1]: Metabolite_Detected
half-life [2]: 3.9 h
AUC [3]: 77700 ng·h/mL
clearance [4]: 0.3 mL/min/kg
Drug metabolism [5]: Metabolite_Detected

SMILES: CN(Cc1ccccc1OCCCCCC(=O)O)C(=O)c1ccc(-c2ccco2)cc1
Drug metabolism [1]: Metabolite_Detected
half-life [2]: 1.7 h
AUC [3]: 1100 ng·h/mL
clearance [4]: 44 mL/min/kg
Drug metabolism [5]: Metabolite_Detected

SMILES: C[C@@H](CCCOc1ccccc1CN(C)C(=O)c1ccc(-c2ccco2)cc1)CC(=O)O
Drug metabolism [1]: Metabolite_Detected
half-life [2]: 2 h
AUC [3]: 30800 ng·h/mL
clearance [4]: 1.3 mL/min/kg
Drug metabolism [5]: Metabolite_Detected

SMILES: CN(Cc1ccccc1OCCCCC(C)(C)C(=O)O)C(=O)c1ccc(-c2ccco2)cc1
Drug metabolism [1]: Metabolite_Detected
half-life [2]: 4.6 h
AUC [3]: 48400 ng·h/mL
clearance [4]: 1.3 mL/min/kg
Drug metabolism [5]: Metabolite_Detected

SMILES: C/C(=C\CCCOc1ccccc1CN(C)C(=O)c1ccc(-c2ccco2)cc1)C(=O)O
Drug metabolism [1]: Metabolite_Detected
half-life [2]: 1.2 h
AUC [3]: 1300 ng·h/mL
clearance [4]: 4 mL/min/kg
Drug metabolism [5]: Metabolite_Detected

SMILES: CN(Cc1ccccc1OCCC[C@@H]1C[C@@H]1C(=O)O)C(=O)c1ccc(-c2ccco2)cc1 (racemic)
Drug metabolism [1]: Metabolite_Detected
half-life [2]: 2.7 h
AUC [3]: 30100 ng·h/mL
clearance [4]: 1.7 mL/min/kg
Drug metabolism [5]: Metabolite_Detected

Results, then the molecule that gave them:

Drug metabolism [1]: Metabolite_Detected
half-life [2]: 1.7 h
AUC [3]: 11800 ng·h/mL
clearance [4]: 4 mL/min/kg
Drug metabolism [5]: Metabolite_Detected
SMILES: CC(CCOc1ccccc1CN(C)C(=O)c1ccc(-c2ccco2)cc1)CCC(=O)O (stereo not drawn)

Drug metabolism [1]: Metabolite_Detected
AUC [6]: 6200 ng·h/mL
bioavailability [7]: 82%
half-life [8]: 1.8 h
clearance [9]: 8 mL/min/kg
AUC [10]: 12500 ng·h/mL
Vd [11]: 2.6 L/kg
AUC [12]: 6050 ng·h/mL
Cmax [13]: 3800 ng/mL
half-life [14]: 2.5 h
AUC [15]: 4650 ng·h/mL
half-life [2]: 2.3 h
AUC [16]: 1980 ng·h/mL
clearance [17]: 7.2 mL/min/kg
solubility thermodynamic [18]: 190 µM (≈ 82.4 µg/mL)
half-life [19]: 5.8 h
AUC [3]: 3300 ng·h/mL
Vd [20]: 1.3 L/kg
AUC [21]: 16600 ng·h/mL
clearance [22]: 8.4 mL/min/kg
Cmax [23]: 4190 ng/mL
clearance [4]: 15 mL/min/kg
bioavailability [24]: 29%
Drug metabolism [5]: Metabolite_Detected
half-life [25]: 1.1 h
Cmax [26]: 11100 ng/mL
half-life [27]: 4.5 h
Vd [28]: 0.9 L/kg
half-life [29]: 4.3 h
bioavailability [30]: 84%
SMILES: C/C(=C\COc1ccccc1CN(C)C(=O)c1ccc(-c2ccco2)cc1)CCC(=O)O

Drug metabolism [1]: Metabolite_Detected
half-life [2]: 1.9 h
AUC [3]: 750 ng·h/mL
clearance [4]: 67 mL/min/kg
Drug metabolism [5]: Metabolite_Detected
SMILES: CN(Cc1ccccc1OCCC/C=C/C(=O)O)C(=O)c1ccc(-c2ccco2)cc1

Drug metabolism [1]: Metabolite_Detected
half-life [2]: 1.6 h
AUC [3]: 4700 ng·h/mL
clearance [4]: 11 mL/min/kg
Drug metabolism [5]: Metabolite_Detected
SMILES: C/C(=C\C(=O)O)CCCOc1ccccc1CN(C)C(=O)c1ccc(-c2ccco2)cc1

Drug metabolism [31]: Metabolite_Detected
Drug metabolism [32]: Metabolite_Detected
Drug metabolism [33]: Metabolite_Detected
SMILES: O=C(O)CCCCCOc1ccccc1CN(C(=O)c1ccc(-c2ccco2)cc1)C1CC1

Drug metabolism [1]: Metabolite_Detected
half-life [2]: 3.5 h
AUC [3]: 40500 ng·h/mL
clearance [4]: 0.6 mL/min/kg
Drug metabolism [5]: Metabolite_Detected
SMILES: CN(Cc1ccccc1OCCC[C@@H]1C[C@H]1C(=O)O)C(=O)c1ccc(-c2ccco2)cc1 (racemic)
